Source: patent US12565520B2, “Chemically-stabilized allosteric modulators of leucine-rich repeat kinase 2 (LRRK2)” (UNIVERSITY OF GEORGIA RESEARCH FOUNDATION, INC., priority 2020, dated 2026)
Entries after “also recorded” stand apart in the source; their conditions may differ.

Columns and labels:
[1] = system: LRRK2 dimers (WT/WT, WT/G2019S, G2019S/G2019S); test: Proximity biotinylation ELISA-based LRRK2 dimerization assay in cells; type: cell-based; details: for LRRK2 dimerization in cells (FIG. 8): 0.1, 1 and 10 μM fluorescently labeled peptide; for LRRK2 dimerization, wild-type homodimers and wild-type/G2019S heterodimers: HEK293 cells
Excerpt: Proximity biotinylation of LRRK2. To purify LRRK2 dimers, we relied on the proximity biotinylation technique recently described (E. Leandrou et al., Kinase activity of mutant LRRK2 manifests differently in hetero-dimeric vs. homo-dimeric complexes. Biochem J 476, 559-579 (2019); and M. Fernandez-Suarez, T. S. Chen, A. Y. Ting, Protein-protein interaction detection in vitro and in cells by proximity biotinylation. J Am Chem Soc 130, 9251-9253 (2008)). Briefly, two cDNAs were created encoding LRRK2 fusions with biotin ligase (BirA; N-term, Flag-tagged) and an acceptor peptide (AP, N-term; c-Myc tagged), and over-expressed in HEK293T cells grown in biotin-depleted medium (OptiMEM+2% FBS). The following day, the cells were treated with the indicated concentrations of the stapled peptides: LRIP4 and LCIP1. Stock peptides, fluorescently tagged, were diluted in serum-free medium, and added every 24 hours after transfection. After 48 hours following initiation of treatment (i.e. 72 hr of total expression), the cells were extensively washed in PBS, given a brief biotin pulse (50 μM, 5 min, 37° C.), followed by another 3× washes in PBS, centrifuged and the pellet snap frozen in a dry-ice/MeOH bath. Following lysis, extracts were diluted in TBST/BSA (10 mM Tris HCl, pH 7.6; 100 mM NaCl; 0.1% Triton X-100; 1% BSA) and 2.5 μg of protein loaded in parallel ELISA plates, coated with streptavidin (SA; to capture biotinylated LRRK2 dimers) and anti-LRRK2 (to quantify LRRK2 over-expression). To detect and quantify dimeric LRRK2, SA-coated plates were incubated with HRP-conjugated anti-Flag antibodies (1 hour, room temperature). Since the biotin tag is only present on AP-LRRK2 fusions, and the flag epitope tag is located on the BirA-LRRK2 fusion, by using HRP-Flag as our detector reagent, we are specifically labeling dimeric LRRK2 present in the ELISA plates. On the parallel anti-LRRK2 coated plates (clone c41-2), total over-expressed LRRK2 was quantified using HRP-LRRK2 antibodies (clone N241) and used to normalize the relative amounts of dimeric LRRK2. The following LRRK2 dimers were assessed: WT/WT homodimers, WT/G2019S, and G2019S/G2019S homodimers.
In this assay, HEK293T cells expressing either wild-type or G2019S mutants of LRRK2 fusions, either with the biotin ligase BirA or the acceptor peptide AP, were treated with increasing concentrations (0.1, 1, and 10 μM) of each fluorescently labeled peptide.

[2] = molecular target: T1, LRRK2 dimerization (Homo sapiens, UniProt Q5S007); test: In vitro dimerization assay (co-immunoprecipitation of GFP- and Strep-tagged LRRK2); type: biochemical; details: 10 μM peptide overnight, HEK293 lysates
T1 construct: co-transfecting HEK293 cells with GFP-tagged and strep-tagged full-length LRRK2; expressed in transfected cells; host or cells: HEK293
Procedure: In vitro dimerization assay. HEK293 cells were co-transfected using JetPEI reagent (Polyplus transfection) with pcDNA3.1_GFP.LRRK2 and pDEST(N)SF.LRRK2. Cells were cultivated for 48 hours. The cells were then lysed with 200 μL ice-cold lysis buffer (10 mM Tris/HCl pH 7.5; 150 mM NaCl; 0.5 mM EDTA; 0.5% NP-40), complete EDTA-free protease inhibitor cocktail (Sigma-Aldrich Cat #11836170001) and Protease Inhibitor Cocktail, Sigma (cat. no. P-2714). The mixture was incubated and rotated on ice for 30 minutes with extensively pipetting every 10 minutes. Lysate was cleared by centrifugation for 10 min at 14000 g for 10 min at 4° C. The supernatant was transferred to a precooled tube and 300 μL dilution buffer (same as lysis buffer without NP-40) was added to the lysate. Peptides were added to a final concentration of 10 μM and the mixture was allowed to rotate at 4° C. overnight. GFP-LRRK2 was immunoprecipitated with Magnetic GFP nanotrap beads (ChromoTek). […] The membranes were coated with enhanced chemiluminescent (ECL) reagent (WesternSure PREMIUM, Li-COR biosciences), and proteins were detected by C-Digit Imaging System (Li-COR Biosciences).
To determine whether LCIP1 and LRIP4 could effectively disrupt LRRK2 dimerization, we monitored disruption of dimerization using two different tagged versions of LRRK2. […]

[3] = molecular target: T2, GFP-tagged LRRK2 (Homo sapiens, UniProt Q5S007); test: Localization of GFP-tagged LRRK2 by confocal microscopy; type: cell-based; details: HEK293 cells, 10 μM peptide, 12 h
T2 construct: co-transfecting HEK293 cells with GFP-tagged and strep-tagged full-length LRRK2; expressed in transfected cells; host or cells: HEK293
Excerpt: Next, we analyzed the effects of these inhibitor peptides on LRRK2 localization.

T1 sequence (Q5S007 whole entry): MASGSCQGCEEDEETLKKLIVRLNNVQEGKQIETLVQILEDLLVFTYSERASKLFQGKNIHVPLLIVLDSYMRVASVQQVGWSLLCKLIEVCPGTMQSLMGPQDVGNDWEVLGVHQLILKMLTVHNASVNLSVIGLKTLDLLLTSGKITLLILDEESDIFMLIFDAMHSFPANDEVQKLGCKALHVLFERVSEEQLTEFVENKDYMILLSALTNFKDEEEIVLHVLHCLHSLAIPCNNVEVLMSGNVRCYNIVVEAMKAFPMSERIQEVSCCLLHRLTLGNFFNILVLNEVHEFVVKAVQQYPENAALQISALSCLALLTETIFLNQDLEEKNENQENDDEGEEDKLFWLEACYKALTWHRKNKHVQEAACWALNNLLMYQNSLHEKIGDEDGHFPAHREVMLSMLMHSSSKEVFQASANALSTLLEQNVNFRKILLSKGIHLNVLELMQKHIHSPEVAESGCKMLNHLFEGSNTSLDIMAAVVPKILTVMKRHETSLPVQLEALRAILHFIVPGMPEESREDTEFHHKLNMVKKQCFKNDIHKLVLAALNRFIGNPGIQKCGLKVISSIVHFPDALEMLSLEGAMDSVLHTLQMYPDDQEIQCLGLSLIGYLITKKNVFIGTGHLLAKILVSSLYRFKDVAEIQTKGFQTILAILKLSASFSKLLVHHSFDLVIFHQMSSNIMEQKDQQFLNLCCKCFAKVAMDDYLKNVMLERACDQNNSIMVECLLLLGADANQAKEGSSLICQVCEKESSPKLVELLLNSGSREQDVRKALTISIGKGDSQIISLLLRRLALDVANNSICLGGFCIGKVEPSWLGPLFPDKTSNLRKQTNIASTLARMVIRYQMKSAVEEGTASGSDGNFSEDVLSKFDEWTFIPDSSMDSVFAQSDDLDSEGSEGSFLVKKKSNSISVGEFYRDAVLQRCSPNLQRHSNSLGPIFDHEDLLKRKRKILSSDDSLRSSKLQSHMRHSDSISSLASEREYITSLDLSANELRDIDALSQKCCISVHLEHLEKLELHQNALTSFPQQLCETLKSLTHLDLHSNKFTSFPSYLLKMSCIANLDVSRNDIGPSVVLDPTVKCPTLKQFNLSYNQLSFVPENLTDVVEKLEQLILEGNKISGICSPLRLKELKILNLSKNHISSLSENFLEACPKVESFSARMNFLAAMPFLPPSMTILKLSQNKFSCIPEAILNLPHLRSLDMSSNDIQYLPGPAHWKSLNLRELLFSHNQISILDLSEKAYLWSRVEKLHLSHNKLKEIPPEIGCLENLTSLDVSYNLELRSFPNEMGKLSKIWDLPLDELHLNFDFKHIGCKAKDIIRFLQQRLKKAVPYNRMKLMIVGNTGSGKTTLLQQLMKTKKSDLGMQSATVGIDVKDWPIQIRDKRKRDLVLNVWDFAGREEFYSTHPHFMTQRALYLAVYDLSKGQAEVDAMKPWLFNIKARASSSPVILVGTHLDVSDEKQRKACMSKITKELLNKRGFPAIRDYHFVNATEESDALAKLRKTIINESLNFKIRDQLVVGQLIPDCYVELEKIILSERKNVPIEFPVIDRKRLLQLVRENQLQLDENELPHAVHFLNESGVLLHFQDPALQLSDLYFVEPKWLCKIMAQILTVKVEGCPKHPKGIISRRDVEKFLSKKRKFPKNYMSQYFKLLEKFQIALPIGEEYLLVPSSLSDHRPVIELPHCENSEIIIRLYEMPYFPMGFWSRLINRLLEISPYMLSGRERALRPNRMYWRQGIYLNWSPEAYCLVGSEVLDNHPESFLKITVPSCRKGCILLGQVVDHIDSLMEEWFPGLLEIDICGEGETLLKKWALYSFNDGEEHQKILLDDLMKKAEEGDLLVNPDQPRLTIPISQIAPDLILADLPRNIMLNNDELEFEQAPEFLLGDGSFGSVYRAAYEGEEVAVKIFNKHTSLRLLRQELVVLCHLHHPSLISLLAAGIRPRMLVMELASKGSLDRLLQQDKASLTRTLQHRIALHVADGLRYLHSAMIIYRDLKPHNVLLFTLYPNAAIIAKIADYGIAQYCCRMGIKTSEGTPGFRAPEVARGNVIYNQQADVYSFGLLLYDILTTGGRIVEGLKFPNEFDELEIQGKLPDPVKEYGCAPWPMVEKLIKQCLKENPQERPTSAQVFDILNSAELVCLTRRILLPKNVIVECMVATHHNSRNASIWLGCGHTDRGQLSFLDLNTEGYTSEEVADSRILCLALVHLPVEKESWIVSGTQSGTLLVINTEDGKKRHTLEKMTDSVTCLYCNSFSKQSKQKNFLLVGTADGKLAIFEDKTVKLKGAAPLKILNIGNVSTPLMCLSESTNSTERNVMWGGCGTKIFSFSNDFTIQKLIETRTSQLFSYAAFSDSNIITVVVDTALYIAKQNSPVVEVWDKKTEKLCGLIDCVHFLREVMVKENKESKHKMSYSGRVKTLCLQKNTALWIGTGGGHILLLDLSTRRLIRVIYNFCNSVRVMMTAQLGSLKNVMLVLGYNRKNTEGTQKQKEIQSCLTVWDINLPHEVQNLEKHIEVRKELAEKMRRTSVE
T2 sequence (Q5S007 whole entry): as above
Sequence of LRRK2 dimers (WT/WT, WT/G2019S, G2019S/G2019S) (Q5S007 1328-1878 limits assumed, stated change not applied): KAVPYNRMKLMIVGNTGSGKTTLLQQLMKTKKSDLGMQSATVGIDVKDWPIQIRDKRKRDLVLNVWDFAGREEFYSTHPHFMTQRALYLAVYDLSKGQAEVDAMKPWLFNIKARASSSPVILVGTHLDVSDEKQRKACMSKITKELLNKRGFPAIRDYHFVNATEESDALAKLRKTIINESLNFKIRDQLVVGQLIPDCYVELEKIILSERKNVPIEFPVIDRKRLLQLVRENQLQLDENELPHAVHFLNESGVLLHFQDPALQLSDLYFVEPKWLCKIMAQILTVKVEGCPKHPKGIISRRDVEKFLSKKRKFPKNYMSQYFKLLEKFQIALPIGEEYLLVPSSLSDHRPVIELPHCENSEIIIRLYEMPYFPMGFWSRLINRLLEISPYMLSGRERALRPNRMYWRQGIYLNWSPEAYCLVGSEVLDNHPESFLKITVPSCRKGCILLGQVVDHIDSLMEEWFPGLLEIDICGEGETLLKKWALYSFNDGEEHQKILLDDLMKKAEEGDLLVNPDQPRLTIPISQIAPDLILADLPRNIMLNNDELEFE

Row | Substance | LRRK2 dimerization in cells (FIG. 8) [1] | LRRK2 dimerization, wild-type homodimers and wild-type/G2019S heterodimers [1] | LRRK2 dimerization (Strep-LRRK2 co-precipitated with GFP-LRRK2) [2] | LRRK2 localization after peptide treatment [3] | LRRK2 dimerization, G2019S/G2019S homodimers and G2019S/wild-type heterodimers ([1]; HEK293(T) cells, 10 mM peptide as printed)
1 | COR-domain stapled peptide formed from SEQ ID NO. 16 KGEGEXLLKXWK, X = (S)-2-(4′-pentenyl)alanine; PEG3 linker, FAM or biotin label (hydrocarbon staple; PEG3 linker; FAM or biotin; COR domain peptide; (6)..(6) Xaa is (S)-2-(4′-pentenyl)alanine; (10)..(10) Xaa is (S)-2-(4′-pentenyl)alanine) [LCIP1] | failed to consistently lead to a reduction in LRRK2 dimerization; also recorded: no statistically significant effect on dimerization | no statistically significant effects on dimerization | reduced the co-immunoprecipitation of the two LRRK2 proteins; also recorded: able to disrupt LRRK2 dimerization; also recorded: reduced dimerization; also recorded: inhibitory effect on LRRK2 | LRRK2 maintained its cytoplasmic distribution; also recorded: did not induce mislocalization of LRRK2 | –
2 | Roc-domain stapled peptide formed from SEQ ID NO. 6 DEKQRKAC(Nle)SKITKEXLNKX, X = (S)-2-(4′-pentenyl)alanine; PEG3 linker, FAM or biotin label (DEKQRKACXSKITKEXLNKX; hydrocarbon staple; Nle; PEG3 linker; FAM or biotin; ROC domain petide; (9)..(9) Xaa is norleucine; (16)..(16) Xaa is (S)-2-(4′-pentenyl)alanine; (20)..(20) Xaa is (S)-2-(4′-pentenyl)alanine) [LRIP4] | effectively disrupts LRRK2 dimerization in cells | inhibit dimerization of both wild-type LRRK2 homodimers and wild-type/G2019S LRRK2 heterodimers | reduced the co-immunoprecipitation of the two LRRK2 proteins; also recorded: able to disrupt LRRK2 dimerization with LRIP4 having the most pronounced effect; also recorded: reduced dimerization; also recorded: inhibitory effect on LRRK2 | LRRK2 maintained its cytoplasmic distribution; also recorded: did not induce mislocalization of LRRK2 | statistically significant reduction in both G2019S/G2019S and G2019S/wild-type LRRK2 dimers; also recorded: inhibit dimerization of both wild-type/G2019S LRRK2 heterodimers or G2019S LRRK2 homodimers
